The structures appear in SMILES notation.

The test system of test [1] is wild-type Plk4-GFP NIH/3T3 cells. Briefly: Centriole overduplication assay, NIH/3T3 overexpressing wild-type Plk4-GFP. It is filed as cell-based, mouse. Here is the method: For generation of Plk4-GFP inducible NIH/3T3 cells, a mouse Plk4 cDNA C-terminally fused to eGFP was cloned into the lentiviral vector pLVX-TRE3G (Clontech). The G95L point mutation was generated by Quikchange mutagenesis (Agilent Technologies). Plasmids were transfected into HEK-293T cells using the Lenti-X HTX packaging system (Clontech), following manufacturer's instructions. 48 hours after transfection, virus-containing culture supernatant was harvested and added to the growth medium of Tet-On 3G NIH/3T3 cells (Clontech)+8 μg/ml polybrene (EMD Millipore).
Centriole overduplication assay. Tet-On 3G NIH/3T3 cells (Clontech) stably transduced with GFP, Plk4-GFP or Plk4(G95L)-GFP were seeded onto coverslips in a 12-well plate at 30,000 cells/well. Transgene expression was induced with 1 μg/ml doxycycline. […] Treated cells were incubated for 40 hours, and then washed with PBS and fixed in 100% methanol (−20° C., 5 minutes). Fixed samples were stained for γ-tubulin and Cep192, and mounted onto slides. Image acquisition and deconvolution were performed on the DeltaVision system equipped with a 100×1.3 NA U-PlanApo objective. Subsequent image processing was performed in ImageJ.

The next test has as its system HeLa cells. Briefly: Quantification of centrosome numbers from fixed samples, HeLa. To be noted: for foci of centriolar and pericentriolar material markers: centrinone treatment. It is filed as cell-based, human. How it is done: Quantification of centrosome numbers from fixed samples. Cells were seeded onto poly-D-lysine-coated coverslips (Neuvitro) in 12-well plates at least 8 hours before fixation. At the required timepoints for each experiment, cells were washed once with PBS and fixed in 100% methanol (−20° C., 5 minutes). Fixed cells were washed with PBS, blocked with PBS+4% BSA+0.1% Triton X-100, and stained with primary antibodies against γ-tubulin and Cep192, which localize to the pericentriolar material and proximal to the outer centriole wall, respectively (47, 48). Alexa488-labeled anti-mouse secondary antibody (against anti-γ-tubulin) and Alexa647-labeled anti-rabbit secondary antibody (against anti-Cep192) were both used at 1.5 jag/mL. Samples were mounted onto slides with Prolong Gold antifade reagent (Life Technologies). Images of fixed interphase cells were acquired on a Nikon Eclipse E800 with a 60×1.4 NA PlanApo objective and ORCA-ER camera (Hamamatsu) using Metamorph software (Molecular Devices). Quantification of foci was performed manually. A focus was defined as a bona-fide centrosome if it was positive for both γ-tubulin and Cep192 (true for >95% of foci).

In a further test the target is T1, LRRK2 (Homo sapiens, UniProt Q5S007).
T1 construct: Reaction Biology (Malvern, Pa.), contract assay
Briefly: Radiometric kinase assay, off-target LRRK2. It is filed as biochemical. To be noted: off-target from DiscoveRx kinome profiling. How it is done:
(§1) Aurora B and other radiometric kinase assays were performed by Reaction Biology (Malvern, Pa.). Kinome profiling of centrinone and centrinone-B was performed by DiscoveRx (San Diego, Calif.).

Another test deals with RPE1 Plk4 G95L cells. Briefly: Centrosome number and passaging assay, RPE1 Plk4 G95L knock-in. Particulars: RPE1, both PLK4 alleles G95L. The format is cell-based, human. An excerpt:
For generation of RPE1 cells with a Plk4(G95L) knock-in, we targeted the intronic region between exons 4 and 5 of the Plk4 locus with a gRNA sequence ([…], SEQ ID NO: 1) cloned into pX458 (a gift from Feng Zhang; Addgene plasmid #48138; 44). A repair template was cloned to introduce the G95L point mutation, as well as a neomycin resistance cassette within the intronic region (see FIG. 15). RPE1 cells were transfected with the Cas9/gRNA plasmid, then transduced with adeno-associated virus coding for the repair template using previously described methods (45). Cells were selected in 96-well plates for 2 weeks using 0.5 mg/ml Geneticin (Life Technologies). Positive clones homozygous for the G95L knock-in were identified by PCR and sequencing of genomic DNA.
Passaging assays. Cells were seeded into 10 cm tissue culture plates at 150,000 (HeLa, NIH/3T3 and RPE1) or 200,000 cells/plate (primary fibroblasts). Compounds were added at the indicated concentrations. At 4-day intervals, cells were harvested, counted using a TC10 cell counter, and re-seeded into new plates at the densities above. Results are from 2 independent experiments.

For another test, the target named is T2, JAK2 (Homo sapiens, UniProt O60674).
T2 construct: Reaction Biology (Malvern, Pa.), contract assay
Nature of the test: Radiometric kinase assay, off-target JAK2. To be noted: off-target from DiscoveRx kinome profiling. The format is biochemical. Here is the method:
as §1

The next test has as its target ROS/ROS1 (Homo sapiens, UniProt P08922). Briefly: Radiometric kinase assay, off-target ROS/ROS1. It is filed as biochemical. To be noted: off-target from DiscoveRx kinome profiling. How it is done:
as §1

The test system of another test is NIH/3T3 cells. Briefly: Analysis of mitosis, NIH/3T3 centrin-GFP H2B-RFP. Particulars: centrosome-less NIH/3T3 cells. It is filed as cell-based, mouse. How it is done:
Analysis of mitosis and daughter cell fate. […] Cells were seeded into 96-well cycloolefin plates at 5000 cells/well, 8-10 hours before imaging. Movies were acquired on the CV1000 with a 40×0.95 NA U-PlanApo objective. The imaging chamber was maintained at 37° C. and 5% CO2. Image acquisition and data analysis were performed using CellVoyager software. 20 fields/well were imaged. For HeLa and NIH/3T3 cells, 5×2 μm z-sections in the GFP (25% power, 125 ms, 30% gain) and RFP (25% power, 100 ms, 30% gain) channels were captured in each field, at 5-minute intervals for 24 hours. For RPE1 cells, 5×2 μm z-sections in the GFP (20% power, 100 ms, 30% gain) and RFP (25% power, 100 ms, 30% gain) channels were captured in each field, at 5-minute intervals for 8 hours. To track RPE1 daughter cell fate, imaging was then switched to 3×4 μm z-sections in the RFP channel only, at 10-minute intervals for 48 hours. Mitosis was measured from nuclear envelope breakdown to anaphase onset (or arrest). Results represent combined measurements of 100 mother cells per condition from 2-4 independent experiments.

T1 sequence (Q5S007 whole entry): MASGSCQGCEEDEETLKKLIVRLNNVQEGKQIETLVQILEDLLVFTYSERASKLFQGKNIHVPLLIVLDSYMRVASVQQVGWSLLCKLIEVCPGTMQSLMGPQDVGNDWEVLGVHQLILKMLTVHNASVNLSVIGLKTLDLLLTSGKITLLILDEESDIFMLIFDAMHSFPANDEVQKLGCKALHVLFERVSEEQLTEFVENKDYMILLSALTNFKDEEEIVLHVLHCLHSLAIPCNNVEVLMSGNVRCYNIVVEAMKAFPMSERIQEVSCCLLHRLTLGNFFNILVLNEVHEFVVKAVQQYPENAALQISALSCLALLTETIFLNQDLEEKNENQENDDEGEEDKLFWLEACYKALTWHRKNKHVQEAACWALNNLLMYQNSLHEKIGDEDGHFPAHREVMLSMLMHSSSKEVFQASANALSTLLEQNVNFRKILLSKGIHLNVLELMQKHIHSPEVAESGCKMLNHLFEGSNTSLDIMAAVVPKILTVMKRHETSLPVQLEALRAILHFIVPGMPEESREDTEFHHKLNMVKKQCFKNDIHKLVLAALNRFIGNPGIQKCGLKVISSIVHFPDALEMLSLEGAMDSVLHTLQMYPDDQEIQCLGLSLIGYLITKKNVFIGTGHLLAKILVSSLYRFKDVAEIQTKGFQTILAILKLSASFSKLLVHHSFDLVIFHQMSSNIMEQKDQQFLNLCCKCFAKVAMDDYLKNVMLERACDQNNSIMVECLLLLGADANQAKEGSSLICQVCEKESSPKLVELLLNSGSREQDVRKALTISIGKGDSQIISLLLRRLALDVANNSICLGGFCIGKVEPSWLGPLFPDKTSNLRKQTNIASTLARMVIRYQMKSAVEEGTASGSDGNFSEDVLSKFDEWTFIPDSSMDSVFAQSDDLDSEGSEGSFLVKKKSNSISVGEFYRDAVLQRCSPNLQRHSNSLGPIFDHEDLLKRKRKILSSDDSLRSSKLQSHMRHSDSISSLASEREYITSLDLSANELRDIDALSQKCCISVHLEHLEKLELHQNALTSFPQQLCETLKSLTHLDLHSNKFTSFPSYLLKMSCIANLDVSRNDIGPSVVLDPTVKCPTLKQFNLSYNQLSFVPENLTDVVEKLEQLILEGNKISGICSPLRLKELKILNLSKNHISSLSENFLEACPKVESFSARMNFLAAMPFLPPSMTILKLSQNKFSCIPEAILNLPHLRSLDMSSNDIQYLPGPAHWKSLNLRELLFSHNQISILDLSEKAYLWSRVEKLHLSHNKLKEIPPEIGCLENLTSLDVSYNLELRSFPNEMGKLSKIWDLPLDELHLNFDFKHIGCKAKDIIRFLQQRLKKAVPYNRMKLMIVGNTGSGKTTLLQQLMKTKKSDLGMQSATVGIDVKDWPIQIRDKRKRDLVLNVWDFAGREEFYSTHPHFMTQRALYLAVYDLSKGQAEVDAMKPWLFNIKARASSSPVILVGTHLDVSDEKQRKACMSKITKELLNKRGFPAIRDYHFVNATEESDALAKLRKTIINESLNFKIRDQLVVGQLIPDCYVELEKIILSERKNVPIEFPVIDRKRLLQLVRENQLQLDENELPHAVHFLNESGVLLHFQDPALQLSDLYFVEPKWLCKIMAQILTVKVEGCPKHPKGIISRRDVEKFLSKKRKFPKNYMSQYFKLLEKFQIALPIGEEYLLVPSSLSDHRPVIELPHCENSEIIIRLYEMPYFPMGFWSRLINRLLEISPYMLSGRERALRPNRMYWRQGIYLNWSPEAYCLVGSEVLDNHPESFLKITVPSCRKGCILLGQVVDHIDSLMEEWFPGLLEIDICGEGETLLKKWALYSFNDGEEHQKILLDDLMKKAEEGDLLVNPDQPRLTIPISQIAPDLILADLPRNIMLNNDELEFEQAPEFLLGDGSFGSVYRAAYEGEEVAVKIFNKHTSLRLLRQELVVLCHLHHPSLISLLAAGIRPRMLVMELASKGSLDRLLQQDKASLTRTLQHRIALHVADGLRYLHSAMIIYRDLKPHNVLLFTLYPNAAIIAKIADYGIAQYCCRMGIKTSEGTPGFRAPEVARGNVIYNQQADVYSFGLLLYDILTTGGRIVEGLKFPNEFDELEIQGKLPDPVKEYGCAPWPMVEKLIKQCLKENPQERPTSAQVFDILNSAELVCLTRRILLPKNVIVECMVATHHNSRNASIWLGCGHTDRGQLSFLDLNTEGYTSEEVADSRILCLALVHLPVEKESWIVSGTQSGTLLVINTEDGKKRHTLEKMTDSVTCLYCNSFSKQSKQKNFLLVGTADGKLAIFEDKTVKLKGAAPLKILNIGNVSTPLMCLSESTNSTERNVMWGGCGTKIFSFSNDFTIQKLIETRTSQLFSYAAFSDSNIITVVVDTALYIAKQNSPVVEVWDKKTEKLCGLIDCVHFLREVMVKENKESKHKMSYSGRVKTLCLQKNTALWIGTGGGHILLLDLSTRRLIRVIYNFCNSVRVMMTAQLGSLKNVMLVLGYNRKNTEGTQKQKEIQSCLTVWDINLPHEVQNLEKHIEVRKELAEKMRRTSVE
T2 sequence (O60674 whole entry): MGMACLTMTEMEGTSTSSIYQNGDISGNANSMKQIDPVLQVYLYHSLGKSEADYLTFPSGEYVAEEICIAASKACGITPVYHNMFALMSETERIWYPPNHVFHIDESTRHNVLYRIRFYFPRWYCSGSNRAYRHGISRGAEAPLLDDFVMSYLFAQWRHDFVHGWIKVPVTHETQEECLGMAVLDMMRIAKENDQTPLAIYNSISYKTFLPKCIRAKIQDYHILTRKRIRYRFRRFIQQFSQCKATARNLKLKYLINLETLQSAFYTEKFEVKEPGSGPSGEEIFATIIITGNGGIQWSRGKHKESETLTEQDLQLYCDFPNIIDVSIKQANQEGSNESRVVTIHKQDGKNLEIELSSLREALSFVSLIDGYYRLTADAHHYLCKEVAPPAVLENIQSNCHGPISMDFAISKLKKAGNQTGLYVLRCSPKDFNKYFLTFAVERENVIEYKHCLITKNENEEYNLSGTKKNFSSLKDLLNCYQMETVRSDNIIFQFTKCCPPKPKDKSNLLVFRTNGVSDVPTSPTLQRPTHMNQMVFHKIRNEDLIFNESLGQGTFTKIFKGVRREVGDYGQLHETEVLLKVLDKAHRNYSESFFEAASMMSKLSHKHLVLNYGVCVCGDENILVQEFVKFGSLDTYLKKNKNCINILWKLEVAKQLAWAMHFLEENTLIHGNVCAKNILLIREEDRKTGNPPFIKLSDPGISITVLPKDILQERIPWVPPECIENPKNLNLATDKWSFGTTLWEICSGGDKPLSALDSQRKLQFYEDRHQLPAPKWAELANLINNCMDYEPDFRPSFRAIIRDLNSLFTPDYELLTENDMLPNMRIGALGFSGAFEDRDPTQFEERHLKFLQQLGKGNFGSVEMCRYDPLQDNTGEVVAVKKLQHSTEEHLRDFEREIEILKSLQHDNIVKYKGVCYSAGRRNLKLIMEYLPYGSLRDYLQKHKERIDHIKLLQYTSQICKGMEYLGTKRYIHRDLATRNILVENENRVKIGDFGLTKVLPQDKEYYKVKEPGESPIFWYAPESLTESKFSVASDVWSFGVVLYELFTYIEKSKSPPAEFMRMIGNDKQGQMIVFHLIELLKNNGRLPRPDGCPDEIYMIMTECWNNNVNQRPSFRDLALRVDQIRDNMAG

By Ki is commonly meant a measure of affinity in units of concentration, obtained from inhibition or displacement. Higher therefore signals lower affinity. `COc1c(Nc2cc(C)[nH]n2)nc(Sc2ccc(S(=O)(=O)Cc3cccc([N+](=O)[O-])c3F)cc2F)nc1N1CCOCC1` [Centrinone, 2-((2-fluoro-4-((2-fluoro-3-nitrobenzyl)sulfonyl)phenyl)thio)-5-methoxy-N-(5-methyl-1H-pyrazol-3-yl)-6-morpholinopyrimidin-4-amine]: the centriole amplification result in test [1] is on record as “blocked centriole amplification”. Further, in the test on HeLa cells (HeLa (also BT549, N1E-115-1)), the “centrosome number directly after washout from long-term treated cells” value is “initial wave of centrosome overduplication”. In the test with HeLa cells (HeLa, 10 days following washout), the “centrosome numbers after washout” value is on record as “all cells exhibited normal centrosome numbers”. In addition, the “foci of centriolar and pericentriolar material markers” value is “loss of all markers from cells” in the test on HeLa cells (HeLa) and “most cells lacked centrioles/centrosomes” with HeLa cells (HeLa, listed as centrinone). For the same molecule, the Ki at LRRK2 is 2.08 nM; on JAK2, over 150 nM; on ROS/ROS1, 2.77 nM. In addition, the “centrosome loss and proliferation” value with RPE1 Plk4 G95L cells is given as “did not lead to centrosome loss or proliferation arrest”. Moreover, in the test on NIH/3T3 cells, the “increase in mitotic duration” value was about 20 min.

The values above are taken from patent publication US10752612B2, “PLK4 inhibitors” (LUDWIG INSTITUTE FOR CANCER RESEARCH LTD, priority 2015, dated 2020).
